Measured values from paper PMC12406652 (Antimicrobial Agents and Chemotherapy, 2025).
Marks after values point to notes of the source that are not given here.

Columns and labels:
[1] = Urinary pharmacokinetics on Day 10 after multiple doses of LED-E q8h; type: in vivo, human; settings: urine; for CL renal: oral; for CL renal / Ae0–8 / Ae0–48: geometric mean (geometric CV %); for Ae0–8 / Ae0–48: after last dose (Day 10)
Description: (§1) Quantitation used separate weighted 1 /x^2 linear least-squares regression analyses generated from calibration standards. Exploratory screening for metabolites was performed for some samples. […] Plasma pharmacokinetic parameters were calculated using noncompartmental analysis of the plasma and urine concentration-time data. […] AUCinf and Cmax were natural log-transformed before analysis, using a linear mixed effects model. […] In both studies, plasma pharmacokinetic parameters were calculated using WinNonlin (Certara; Radnor, PA), and urine pharmacokinetic parameters were calculated using SAS (SAS Institute; Cary, NC).

[2] = Urinary pharmacokinetics after single doses of LED-E; type: in vivo, human; settings: urine, geometric mean (geometric CV %); for CL renal: human, oral
Description: Plasma and urine pharmacokinetics samples were assayed for LED-E, LED, and CTB, as appropriate using validated bioanalytical methods. […] Quantitation used separate weighted 1 /x^2 linear least-squares regression analyses generated from calibration standards. Exploratory screening for metabolites was performed for some samples. In both studies, plasma pharmacokinetic parameters were calculated using WinNonlin (Certara; Radnor, PA), and urine pharmacokinetic parameters were calculated using SAS (SAS Institute; Cary, NC).

[3] = Urinary recovery on Day 10 after multiple doses of CTB + LED-E q8h (VNRX-7145-102 Part 3); settings: urine, geometric mean (geometric CV %); for CL renal: human, oral, CLr
[4] = Plasma pharmacokinetics on Day 10 after multiple doses of LED-E q8h (VNRX-7145-101 Part 2, VNRX-7145-102 Part 2); type: in vivo, human; settings: for AUC / Cmax / Tmax / half-life: human, oral, plasma; for Tmax: median (range)
Description: as §1, with “samples. […] […] […] Dose proportionality was analyzed using a power model in which pharmacokinetic exposure parameters and dose were converted to the natural log and linear regression results were reported, with the slope as the power estimate ([15]). […] In Part 2, achievement of steady-state concentrations was assessed using Tukey’s multiple comparison test for pre-dose and all dosing days (Days 2 to 10) for each dose level separately.” for “samples.”

[5] = Plasma pharmacokinetics on Day 10 after multiple doses of CTB + LED-E q8h (VNRX-7145-102 Part 3); settings: human, oral; for AUC: AUCtau; for AUC / Cmax / half-life: geometric mean (CV %)
[6] = Plasma pharmacokinetics after single ascending doses of LED-E (VNRX-7145-101 Part 1); type: in vivo; settings: human, oral; for AUC(0-inf) / Cmax / half-life: geometric mean (CV %); for half-life: read-out: t1/2 (converted); for Tmax: median (range)
Description: Quantitation used separate weighted 1 /x^2 linear least-squares regression analyses generated from calibration standards. Exploratory screening for metabolites was performed for some samples. […] Single-dose plasma pharmacokinetic parameters were determined in Part 1, and both single-dose (Day 1) and multiple-dose ([…]) parameters were determined in Part 2. […] Dose proportionality was analyzed using a power model in which pharmacokinetic exposure parameters and dose were converted to the natural log and linear regression results were reported, with the slope as the power estimate ([15]). […] In Part 2, achievement of steady-state concentrations was assessed using Tukey’s multiple comparison test for pre-dose and all dosing days (Days 2 to 10) for each dose level separately. In both studies, plasma pharmacokinetic parameters were calculated using WinNonlin (Certara; Radnor, PA), and urine pharmacokinetic parameters were calculated using SAS (SAS Institute; Cary, NC).

[7] = multiple doses LED-E 150 mg q8h
[8] = multiple doses LED-E 300 mg q8h
[9] = multiple doses LED-E 500 mg q8h
[10] = Day 10, CTB 400 mg + LED-E 300 mg q8h
[11] = Day 10, CTB 400 mg + LED-E 500 mg q8h
[12] = Day 10, LED-E 150 mg q8h, geometric mean (CV %)
[13] = Day 10, LED-E 300 mg q8h, geometric mean (CV %)
[14] = Day 10, LED-E 500 mg q8h, geometric mean (CV %)
[15] = 1000 mg, single dose LED-E 1,000 mg

CL renal ([1]; human, multiple doses LED-E 75 mg q8h): 44.2 mL/min | CL renal ([1]; human, multiple doses LED-E 150 mg q8h): 51.8 mL/min | CL renal ([1]; human, multiple doses LED-E 300 mg q8h): 51.5 mL/min | CL renal ([1]; human, multiple doses LED-E 500 mg q8h): 82 mL/min | bioavailability ([1]; human, after oral dosing of LED-E, inferred from urinary excretion): ≥ 68% | Ae0–8 ([1]; multiple doses LED-E 75 mg q8h): 43.1 (6.95) mg | Ae0–48 ([1]; multiple doses LED-E 75 mg q8h): 51.6 (7.80) mg | Ae0–48 ([1]; multiple doses LED-E 75 mg q8h, listed as LED): 51.6 mg | Ae0–8 [1, 7]: 73.1 (10.0) mg | Ae0–48 [1, 7]: 86.6 (11.1) mg | Ae0–8 [1, 8]: 137 (34.2) mg | Ae0–48 [1, 8]: 166 (27.8) mg | Ae0–8 [1, 9]: 283 (7.8) mg | Ae0–48 [1, 9]: 345 (11.2) mg | Ae0–48 ([1]; multiple doses LED-E 500 mg q8h, listed as LED): 345 mg | CL renal ([2]; single dose LED-E 300 mg): 66.3 mL/min | CL renal ([2]; single dose LED-E 500 mg): 53.3 mL/min | CL renal ([2]; single dose LED-E 800 mg): 58.7 mL/min | CL renal ([2]; single dose LED-E 1000 mg): 75.5 mL/min | Ae0–8 ([2]; single dose LED-E 300 mg): 113 (23.3) mg | Ae0–48 ([2]; single dose LED-E 300 mg): 131 (20.3) mg | Ae0–8 ([2]; single dose LED-E 500 mg): 190 (14.1) mg | Ae0–48 ([2]; single dose LED-E 500 mg): 220 (12.2) mg | Ae0–8 ([2]; single dose LED-E 800 mg): 364 (6.14) mg | Ae0–48 ([2]; single dose LED-E 800 mg): 438 (3.3) mg | Ae0–8 ([2]; single dose LED-E 1000 mg): 459 (16.6) mg | Ae0–48 ([2]; single dose LED-E 1000 mg): 515 (16.9) mg | Ae0–8 [3, 10]: 156 (11.3) mg | Ae0–8 [3, 11]: 243 (22.8)^d mg | CL renal [3, 10]: 85.8 mL/min | CL renal [3, 11]: 74.8 mL/min | Steady-state plasma concentrations reached by ([4]; LED-E q8h dosing): ≤ 3 days | AUC ([4]; Day 10, LED-E 75 mg q8h, 0 to 8 h post-dose, geometric mean (CV %)): 13900 ng·h/mL | Cmax ([4]; Day 10, LED-E 75 mg q8h, geometric mean (CV %)): 3690 ng/mL | Tmax ([4]; Day 10, LED-E 75 mg q8h): 1 h | AUC [4, 12]: 20800 ng·h/mL | Cmax [4, 12]: 5870 ng/mL | Tmax ([4]; Day 10, LED-E 150 mg q8h): 0.75 h | AUC [4, 13]: 40900 ng·h/mL | Cmax [4, 13]: 11600 ng/mL | Tmax ([4]; Day 10, LED-E 300 mg q8h): 1.13 h | AUC [4, 14]: 70000 ng·h/mL | Cmax [4, 14]: 15800 ng/mL | half-life ([4]; 75 mg, Day 10, LED-E 75 mg q8h, geometric mean (CV %), read-out: t1/2 (converted)): 9.3 h | half-life ([4]; 150 mg, Day 10, LED-E 150 mg q8h, geometric mean (CV %), read-out: t1/2 (converted)): 11.4 h | half-life ([4]; 300 mg, Day 10, LED-E 300 mg q8h, geometric mean (CV %), read-out: t1/2 (converted)): 11.3 h | half-life ([4]; 500 mg, Day 10, LED-E 500 mg q8h, geometric mean (CV %), read-out: t1/2 (converted)): 12.5 h | half-life ([4]; Day 10, after 10 days of q8h dosing, across dose groups, read-out: Terminal half-life (t1/2) in plasma): 11 to 12 h | AUC [5, 10]: 33300 ng·h/mL | AUC [5, 11]: 62200 ng·h/mL | Cmax [5, 10]: 8470 ng/mL | Cmax [5, 11]: 16200 ng/mL | Tmax ([5]; Tmax, Day 10, CTB 400 mg + LED-E 300 mg q8h, median (range)): 1 h | half-life ([5]; t1/2, Day 10, CTB 400 mg + LED-E 300 mg q8h): 11.4 h | half-life ([5]; t1/2, Day 10, CTB 400 mg + LED-E 500 mg q8h): 12.3 h | AUC(0-inf) [6, 15]: 114000 ng·h/mL | Cmax [6, 15]: 26500 ng/mL | half-life [6, 15]: 11.3 h | Tmax [6, 15]: 2 h | AUC(0-inf) ([6]; single dose LED-E 100 mg): 15400 ng·h/mL | Cmax ([6]; single dose LED-E 100 mg): 4010 ng/mL | half-life ([6]; single dose LED-E 100 mg): 5.53 h | AUC(0-inf) ([6]; single dose LED-E 200 mg): 26200 ng·h/mL | Cmax ([6]; single dose LED-E 200 mg): 5970 ng/mL | half-life ([6]; single dose LED-E 200 mg): 6.1 h | AUC(0-inf) ([6]; single dose LED-E 300 mg): 33100 ng·h/mL | Cmax ([6]; single dose LED-E 300 mg): 7570 ng/mL | half-life ([6]; single dose LED-E 300 mg): 7.48 h | AUC(0-inf) ([6]; single dose LED-E 500 mg): 69300 ng·h/mL | Cmax ([6]; single dose LED-E 500 mg): 16800 ng/mL | half-life ([6]; single dose LED-E 500 mg): 11.3 h | AUC(0-inf) ([6]; single dose LED-E 800 mg): 125000 ng·h/mL | Cmax ([6]; single dose LED-E 800 mg): 24000 ng/mL | half-life ([6]; single dose LED-E 800 mg): 8.59 h | Tmax ([6]; single dose LED-E 800 mg): 2 h
Structure (SMILES): CCC(=O)N[C@H]1Cc2cccc(C(=O)O)c2OB1O [Ledaborbactam, ledaborbactam]
